Measurements: paper PMC9848257, “Design and synthesis of novel rigid dibenzo[b,f]azepines through ring closure technique as promising anticancer candidates against leukaemia and acting as selective topoisomerase II inhibitors and DNA intercalators” (Journal of Enzyme Inhibition and Medicinal Chemistry, 2023)

What was measured:
[1] = tested on: HL-60(TB); assay: NCI-60 one-dose screen, HL-60(TB); type: cell-based; details: Homo sapiens, leukaemia, single dose 10 μM, read-out: Growth inhibition %
Procedure: (§1) Anti-proliferative effects of the counterparts 4a–g and 5a–g were screened against 60 human cancer cell lines, following the Developmental Therapeutics Program protocol, National Cancer Institute[35].
(§2) The anti-tumour activity of the fourteen synthesised congeners was investigated at the NCI against a panel of 60 cancer cell lines (NCI-60 Cell One-Dose Screen). The tested dibenzo[b,f]azepine derivatives were screened at a single dose level (10 μM), Table 1.

[2] = tested on: K-562; assay: NCI-60 one-dose screen, K-562; type: cell-based; details: Homo sapiens, K562; K-562, leukaemia; single dose 10 μM; read-out: Growth inhibition %
Procedure: as §1, §2

[3] = tested on: MOLT-4; assay: NCI-60 one-dose screen, MOLT-4; type: cell-based; details: Homo sapiens; MOLT-4, leukaemia; single dose 10 μM; read-out: Growth inhibition %
Procedure: as §1, §2

[4] = tested on: RPMI-8226; assay: NCI-60 one-dose screen, RPMI-8226; type: cell-based; details: Homo sapiens; RPMI-8226, leukaemia; single dose 10 μM; read-out: Growth inhibition %
Procedure: as §1, §2

[5] = tested on: HOP-62; assay: NCI-60 one-dose screen, HOP-62; type: cell-based; details: Homo sapiens; HOP-62, non-small cell lung cancer; single dose 10 μM; read-out: Growth inhibition %
Procedure: as §1, §2

[6] = tested on: NCI-H226; assay: NCI-60 one-dose screen, NCI-H226; type: cell-based; details: Homo sapiens; NCI-H226, non-small cell lung cancer; single dose 10 μM; read-out: Growth inhibition %
Procedure: as §1, §2

[7] = tested on: NCI-H522; assay: NCI-60 one-dose screen, NCI-H522; type: cell-based; details: Homo sapiens; NCI-H522, non-small cell lung cancer; single dose 10 μM; read-out: Growth inhibition %
Procedure: as §1, §2

[8] = tested on: HCC-2998; assay: NCI-60 one-dose screen, HCC-2998; type: cell-based; details: Homo sapiens; HCC-2998, colon cancer; single dose 10 μM; read-out: Growth inhibition %
Procedure: as §1, §2

[9] = tested on: HT29; assay: NCI-60 one-dose screen, HT29; type: cell-based; details: Homo sapiens, HT-29; HT29, colon cancer; single dose 10 μM; read-out: Growth inhibition %
Procedure: as §1, §2

[10] = tested on: KM12; assay: NCI-60 one-dose screen, KM12; type: cell-based; details: Homo sapiens; KM12, colon cancer; single dose 10 μM; read-out: Growth inhibition %
Procedure: as §1, §2

[11] = tested on: SF-295; assay: NCI-60 one-dose screen, SF-295; type: cell-based; details: Homo sapiens; SF-295, CNS cancer; single dose 10 μM; read-out: Growth inhibition %
Procedure: as §1, §2

[12] = tested on: SF-539; assay: NCI-60 one-dose screen, SF-539; type: cell-based; details: Homo sapiens; SF-539, CNS cancer; single dose 10 μM; read-out: Growth inhibition %
Procedure: as §1, §2

[13] = tested on: SNB-19; assay: NCI-60 one-dose screen, SNB-19; type: cell-based; details: Homo sapiens; SNB-19, CNS cancer; single dose 10 μM; read-out: Growth inhibition %
Procedure: as §1, §2

[14] = tested on: LOX IMVI; assay: NCI-60 one-dose screen, LOX IMVI; type: cell-based; details: Homo sapiens, melanoma, single dose 10 μM, read-out: Growth inhibition %
Procedure: as §1, §2

[15] = tested on: M14; assay: NCI-60 one-dose screen, M14; type: cell-based; details: Homo sapiens; M14, melanoma; single dose 10 μM; read-out: Growth inhibition %
Procedure: as §1, §2

[16] = tested on: SK-MEL-2; assay: NCI-60 one-dose screen, SK-MEL-2; type: cell-based; details: Homo sapiens; SK-MEL-2, melanoma; single dose 10 μM; read-out: Growth inhibition %
Procedure: as §1, §2

[17] = tested on: SK-MEL-28; assay: NCI-60 one-dose screen, SK-MEL-28; type: cell-based; details: Homo sapiens; SK-MEL-28, melanoma; single dose 10 μM; read-out: Growth inhibition %
Procedure: as §1, §2

[18] = tested on: UACC-62; assay: NCI-60 one-dose screen, UACC-62; type: cell-based; details: Homo sapiens; UACC-62, melanoma; single dose 10 μM; read-out: Growth inhibition %
Procedure: as §1, §2

[19] = tested on: SK-OV-3; assay: NCI-60 one-dose screen, SK-OV-3; type: cell-based; details: Homo sapiens; SK-OV-3, ovarian cancer; single dose 10 μM; read-out: Growth inhibition %
Procedure: as §1, §2

[20] = tested on: 786-0; assay: NCI-60 one-dose screen, 786-0; type: cell-based; details: Homo sapiens; 786-0, renal cancer; single dose 10 μM; read-out: Growth inhibition %
Procedure: as §1, §2

[21] = tested on: A498; assay: NCI-60 one-dose screen, A498; type: cell-based; details: Homo sapiens; A498, renal cancer; single dose 10 μM; read-out: Growth inhibition %
Procedure: as §1, §2

[22] = tested on: SN12C; assay: NCI-60 one-dose screen, SN12C; type: cell-based; details: Homo sapiens, renal cancer, single dose 10 μM, read-out: Growth inhibition %
Procedure: as §1, §2

[23] = tested on: MDA-MB-231-ATCC; assay: NCI-60 one-dose screen, MDA-MB-231-ATCC; type: cell-based; details: Homo sapiens, breast cancer, single dose 10 μM, read-out: Growth inhibition %
Procedure: as §1, §2

[24] = tested on: MDA-MB-468; assay: NCI-60 one-dose screen, MDA-MB-468; type: cell-based; details: Homo sapiens; MDA-MB-468, breast cancer; single dose 10 μM; read-out: Growth inhibition %
Procedure: as §1, §2

[25] = target: topoisomerase II; assay: Topoisomerase II inhibitory assay; type: biochemical; details: for IC50: in vitro, doxorubicin co-assayed as reference; for Percentage of topoisomerase II inhibition: at the concentration of 100 µM (Figure 3A)
Procedure: Therefore, following the procedure reported by Patra et al., the topoisomerase II activity was evaluated.

[26] = Cytotoxic effect against normal cell line; type: cell-based; details: human, normal cell line PSC-800-011; read-out: Cytotoxicity IC50, PSC-800-011
Procedure: Following, the cytotoxic effect of compound 5e against a normal cell line, PSC-800–011, was also assigned to evaluate the selectivity of the compound towards the cancer cell lines. […] However, the selectivity index (SI) of compound 5e was also calculated to confirm its selectivity. It was known that any sample that has an SI value higher than 3 will be considered to have high selectivity.

| SMILES | inhibition at 10 µM [1] | inhibition at 10 µM [2] | inhibition at 10 µM [3] | inhibition at 10 µM [4] | inhibition at 10 µM [5] | inhibition at 10 µM [6] | inhibition at 10 µM [7] | inhibition at 10 µM [8] | inhibition at 10 µM [9] | inhibition at 10 µM [10] | inhibition at 10 µM [11] | inhibition at 10 µM [12] | inhibition at 10 µM [13] | inhibition at 10 µM [14] | inhibition at 10 µM [15] | inhibition at 10 µM [16] | inhibition at 10 µM [17] | inhibition at 10 µM [18] | inhibition at 10 µM [19] | inhibition at 10 µM [20] | other results |
| --- | --- | --- | --- | --- | --- | --- | --- | --- | --- | --- | --- | --- | --- | --- | --- | --- | --- | --- | --- | --- | --- |
| C1=Cc2ccccc2N(c2nnc(-c3ccccc3)o2)c2ccccc21 [Compound 5a, 2-(5 h-Dibenzo[b,f]azepin-5-yl)-5-phenyl-1,3,4-oxadiazole] | 13.2% | 32.2% | 16.5% | 67.7% | 15.3% | < 10% | < 10% | 33.4% | < 10% | < 10% | < 10% | < 10% | 33.2% | < 10% | 12.1% | < 10% | 28% | < 10% | < 10% | 20% | inhibition at 10 µM [21]: < 10%; inhibition at 10 µM [22]: < 10%; inhibition at 10 µM [23]: < 10%; inhibition at 10 µM [24]: 26.1%; IC50 [25]: 15.6 µM |
| Brc1ccc(-c2nnc(N3c4ccccc4C=Cc4ccccc43)o2)cc1 [Compound 5b, 2-(4-Bromophenyl)-5-(5H-dibenzo[b,f]azepin-5-yl)-1,3,4-oxadiazole] | 34.6% | 54.5% | 35.6% | 17.5% | 22.7% | 28.3% | 26.3% | < 10% | 18.4% | 21.4% | 30.4% | 17.2% | 15.6% | 38.8% | < 10% | < 10% | 14.1% | 32.2% | < 10% | 11.3% | inhibition at 10 µM [21]: 13.4%; inhibition at 10 µM [22]: 24.2%; inhibition at 10 µM [23]: 22.3%; inhibition at 10 µM [24]: 17.8%; IC50 [25]: 10.2 µM |
| Clc1ccc(-c2nnc(N3c4ccccc4C=Cc4ccccc43)o2)cc1 [Compound 5c, 2-(4-Chlorophenyl)-5-(5H-dibenzo[b,f]azepin-5-yl)-1,3,4-oxadiazole] | 38.1% | 54% | 20.4% | 19.2% | 15.4% | 27.5% | 22.2% | < 10% | < 10% | 18.5% | 29.6% | < 10% | 11.2% | 35.7% | < 10% | < 10% | < 10% | 31.3% | < 10% | < 10% | inhibition at 10 µM [21]: 12.9%; inhibition at 10 µM [22]: 21.9%; inhibition at 10 µM [23]: 19.8%; inhibition at 10 µM [24]: 16.7%; IC50 [25]: 31.8 µM |
| Cc1ccc(-c2nnc(N3c4ccccc4C=Cc4ccccc43)o2)cc1 [Compound 5d, 2-(5 h-Dibenzo[b,f]azepin-5-yl)-5-(p-tolyl)-1,3,4-oxadiazole] | 33.8% | 47.8% | 21% | 52% | < 10% | 21.6% | 17.1% | < 10% | < 10% | 13.1% | 22% | < 10% | < 10% | 25.6% | < 10% | < 10% | < 10% | 20.9% | < 10% | < 10% | inhibition at 10 µM [21]: < 10%; inhibition at 10 µM [22]: < 10%; inhibition at 10 µM [23]: 9.21%; inhibition at 10 µM [24]: < 10%; IC50 [25]: 16.8 µM |
| O=[N+]([O-])c1ccc(-c2nnc(N3c4ccccc4C=Cc4ccccc43)o2)cc1 [Compound 5e, 2-(5 h-Dibenzo[b,f]azepin-5-yl)-5–(4-nitrophenyl)-1,3,4-oxadiazole] | 30.1% | 25.3% | 19.4% | < 10% | < 10% | 13.7% | 15% | < 10% | < 10% | < 10% | < 10% | < 10% | < 10% | < 10% | < 10% | < 10% | < 10% | 30% | < 10% | < 10% | inhibition at 10 µM [21]: 14.8%; inhibition at 10 µM [22]: < 10%; inhibition at 10 µM [23]: 15.3%; inhibition at 10 µM [24]: 11.4%; Percentage of topoisomerase II inhibition [25]: 89%; IC50 [25]: 6.36 µM; IC50 [26]: 43.9 ± 2.68 µM |
| C1=Cc2ccccc2N(c2nnc(-c3ccc4ccccc4c3)o2)c2ccccc21 [Compound 5f, 2-(5 h-Dibenzo[b,f]azepin-5-yl)-5-(naphthalen-2-yl)-1,3,4-oxadiazole] | < 10% | 34% | 16.3% | 12.1% | < 10% | 21.4% | 24.2% | < 10% | < 10% | < 10% | 19.9% | < 10% | < 10% | 18.7% | < 10% | < 10% | < 10% | 12.8% | < 10% | < 10% | inhibition at 10 µM [21]: < 10%; inhibition at 10 µM [22]: 15.7%; inhibition at 10 µM [23]: < 10%; inhibition at 10 µM [24]: 11.1%; Percentage of topoisomerase II inhibition [25]: 88%; IC50 [25]: 9.56 µM |
| C1=Cc2ccccc2N(c2nnc(Cc3ccccc3)o2)c2ccccc21 [Compound 5g, 2-Benzyl-5-(5H-dibenzo[b,f]azepin-5-yl)-1,3,4-oxadiazole] | 10.6% | 14.9% | 10.9% | 27.8% | 18.4% | < 10% | < 10% | < 10% | < 10% | < 10% | < 10% | 11.5% | < 10% | < 10% | < 10% | < 10% | < 10% | 10.8% | < 10% | 18.8% | inhibition at 10 µM [21]: < 10%; inhibition at 10 µM [22]: < 10%; inhibition at 10 µM [23]: < 10%; inhibition at 10 µM [24]: 15.6%; IC50 [25]: 18.9 µM |
